We go through two compounds from US20180193414A1, “COMPOSITIONS AND METHODS FOR TREATING NEUROLOGICAL DISORDERS” (Coda Biotherapeutics, Inc., priority 2015, published 2018).

For test [1], the target named is T1, human α-1 GlyRM(F207A+A288G) (Homo sapiens, UniProt P23415, A316G/F235A).
T1 construct: host or cells: mouse dorsal horn neurons transduced in vivo with the AAV vector
T1 sequence (P23415 29-457 F235A/A316G): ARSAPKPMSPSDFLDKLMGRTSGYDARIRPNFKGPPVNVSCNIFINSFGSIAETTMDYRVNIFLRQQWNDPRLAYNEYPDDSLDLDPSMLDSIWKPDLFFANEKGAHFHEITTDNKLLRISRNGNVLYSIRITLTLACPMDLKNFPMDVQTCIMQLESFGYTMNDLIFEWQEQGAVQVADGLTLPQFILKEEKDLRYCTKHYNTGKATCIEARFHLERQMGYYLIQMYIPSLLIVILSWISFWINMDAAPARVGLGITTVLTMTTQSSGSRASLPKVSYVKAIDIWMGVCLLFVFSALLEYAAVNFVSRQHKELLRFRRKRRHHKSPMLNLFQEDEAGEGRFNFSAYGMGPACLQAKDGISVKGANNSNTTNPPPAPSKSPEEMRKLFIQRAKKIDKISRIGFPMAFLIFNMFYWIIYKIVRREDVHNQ
Kind of test: Mechanical withdrawal threshold (von Frey, up-down method) in spared nerve injury (SNI) model. The format is in vivo, mice. From the text: The expression cassette containing a human synapsin-1 (hSYN) promoter driving expression of the human α-1 GlyRM(F207A+A288G)-FLAG cDNA was constructed using standard molecular biology techniques (see also, FIG. 5 and SEQ ID NO:1 for description of the vector). This cassette was subcloned into a self-complementary AAV bacmid, purified, transfected into Sf9 insect cells to produce recombinant bacuvlovirus, and then amplified. Sf9 cells were double infected using the amplified recombinant baculovirus containing the hSYN-GlyRM cassette and another recombinant baculovirus containing the Rep and AAV6(Y705+731F+T492V) Cap genes to produce recombinant AAV vectors. These vectors were purified, viral titer was determined using qPCR (2.15e^13 vg/ml), and SDS-PAGE was used to verify the purity of AAV vectors (Virovek).
A dorsal hemilaminectomy was made at the level of the lumbar enlargement to expose two segments (about 1.5-2 mm) of lumbar spinal cord, after which the dura mater was incised and reflected. The viral solution was loaded into a glass micropipette (prefilled with mineral oil). The micropipette was connected to a manual micro-injector mounted on a stereotactic apparatus. The viral solution was targeted to the dorsal horn (left side). Along the rostro-caudal axis within the exposed region, 6 injections of 240 nl each were performed, in an equidistant linear fashion. After each injection, 1 min of resting time was observed and then the muscle layer was sutured, the skin closed with staples, and the animals were allowed to recover with heated-pad before they were returned to their home cages. Animals were perfused for histological analysis after the last behavior test.
To produce mechanical hypersensitivity in a model that mimics a neuropathic pain condition, the spared nerve injury (SNI) model, a validated model of mechanical allodynia was used (Shields et al., 2003, The Journal of Pain, 4, 465-470). This model was produced by the sectioning of the common peroneal and the sural nerves and isolating the tibial branch (see FIG. 7). Mechanical withdrawal threshold was assessed by placing mice on an elevated wire-mesh grid and stimulating the plantar surface of the hindpaw with von Frey filaments. The up-down method of Chaplan & Yaksh was used to determine mechanical thresholds before the spinal cord injection of the AAV-GlyRM. […] The hindpaw ipsilateral and contralateral to the vector injection was tested. […] Motor coordination was tested using an accelerating rotarod (Stoelting, USA) at a maximum speed of 33 rpm. The duration that the mouse spent on the rotarod was recorded, with a cut-off at 300 sec. Each mouse went through three training trials and was tested two hours later. Subsequently, all mice received a single IP injection of ivermectin (15 mg/kg or 10 mg/kg) and mechanical thresholds were again tested using the up-down method at 1, 2, 5, 7, and 13 days post SNI. […] The reversal lasted for at least 5 days. […] Animals were then perfused for histology.

The target of another test is T2, GLYR(F207A/A288G) (Homo sapiens, UniProt P23415, A316G/F235A).
T2 construct: expressed in transfected cells; host or cells: rodent dorsal root or trigeminal ganglion neurons transduced in vivo with AAV6 vectors
T2 sequence (P23415 29-457 F235A/A316G): T1 sequence (P23415 29-457 F235A/A316G)
The test can be described thus: Pain and anxiety behavioral assays in rodent models of chronic pain (CCI or SNI). In kind it is in vivo. The settings on record: rodents with CCI or SNI, intraganglionic or intrathecal AAV6 GlyR(F207A/A288G) vector; 0.1-10.0 mg/kg per day. The text has this: Day 0: Chronic pain is induced in rodent trigeminal ganglia or dorsal root ganglia using an established peripheral nerve injury method such as the chronic constriction injury (CCI, CO/CFA) or spared nerve injury (SNI) models. See Bennett & Xie. Pain. 1988, Decosterd & Woolf Pain. 2000, and Imamura, Kawamoto, & Nakanishi. Exp. Brain Res. 1997. In some instances, nerve injury may occur after viral vector injection.
Day 7: Intraganglionic or intrathecal injection of 10^8-10^10 vector genomes of AAV6(Y705F+Y731F+T492V)-HSYN-GLYR(F207A/A288G)-FLAG or AAV6-GLY(HSYN-GLYR(F207A/A288G)-FLAG in a volume of approximately 1.0-10 μL is performed in one or multiple dorsal root ganglia or trigeminal ganglia using published methods. See Vit, Ohara, Sundberg et al. Mol Pain. 2009 and Towne, Fischer, Kostic, et al. J Neurosci Methods. 2011, and Pertin, et al. Mol Pain. 2009.
Weeks 2-12 post CCI or SNI: Ivermectin is administered via oral gavage (P0), intraperitoneal injection (IP), subcutaneous injection (SC), or in drinking water for a final dose of 0.1-10.0 mg/kg per day. Pain and anxiety behavioral assays are performed to quantify level of analgesia using established nociception assay including operant assays, mechanical allodynia/hyperalgesia via Von Frey filaments, thermal allodynia/hyperalgesia via Hargreaves method, or anxiety behaviors via elevated plus maze. See review Odd-Geir Berge. […]

In test [2] the target is T3, alpha 1 GlyR(F207A-A288G) (Homo sapiens, UniProt P23415, A316G/F235A).
T3 construct: expressed in transfected cells; host or cells: trigeminal ganglion neurons of adult Sprague-Dawley rats, transduced in vivo with AAV
T3 sequence (P23415 29-457 F235A/A316G): T1 sequence (P23415 29-457 F235A/A316G)
The test can be described thus: Thermal withdrawal latency assay (infrared laser on shaved cheek) after trigeminal ganglion AAV injection. In kind it is in vivo, Sprague-Dawley rats. How it is done:
On day 0, bilateral trigeminal ganglion injections of 10 microliters AAV vector containing the alpha 1 GlyR(F207A-A288G) transgene were performed in adult Sprague-Dawley rats. Two months following AAV injections, a single IP injection of ivermectin 10 mg/kg was administered to rats. The following day, rats were prepared for the thermal latency assay by shaving the fur off of their cheek, up to but not including the whisker pad. They were then placed in a 2.75 inch diameter×8 inch clear polycarbonate cylinder and allowed to acclimate to the environment. The rats naturally positioned themselves so their snout is just outside of the cylinder opening. Under video monitoring, the rats were then exposed to the beam of a 2W, infrared (808 nm) laser illumination focused to project a target size of approximately 1 mm×0.5 mm on the shaved cheek area. The rats then responded to the heat generated by the laser with an abrupt head position change (withdrawal reflex). The sequence was then repeated up to 10 trials on each side. The latency between the laser illumination onset and the head withdrawal reflex was measured from the video with video editing software allowing for frame by frame analysis.

The next test has as its target T4, hM4D(Gi) DREADD (Homo sapiens, UniProt P08173, A203G/Y113C).
T4 construct: HA (N); host or cells: primary afferent nociceptors of female C57BL/6 mice transduced in vivo (intraneural AAV6-hSyn-HA-hM4D(Gi)-IRES-mCitrine), as reported by Iyer et al. 2016
T4 sequence (P08173 1-479 Y113C/A203G): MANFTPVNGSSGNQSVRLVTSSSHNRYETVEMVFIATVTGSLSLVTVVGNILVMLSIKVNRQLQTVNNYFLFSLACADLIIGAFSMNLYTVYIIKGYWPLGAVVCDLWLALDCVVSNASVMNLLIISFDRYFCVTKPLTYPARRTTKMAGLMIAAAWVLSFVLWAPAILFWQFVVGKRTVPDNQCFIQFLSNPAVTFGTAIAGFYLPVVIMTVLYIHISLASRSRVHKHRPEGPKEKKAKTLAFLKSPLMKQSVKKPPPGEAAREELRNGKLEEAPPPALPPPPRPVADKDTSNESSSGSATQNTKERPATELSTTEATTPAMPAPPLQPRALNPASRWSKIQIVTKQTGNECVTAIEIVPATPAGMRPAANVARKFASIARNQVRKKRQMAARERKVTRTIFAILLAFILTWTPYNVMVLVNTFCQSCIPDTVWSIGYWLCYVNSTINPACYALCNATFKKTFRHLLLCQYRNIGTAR
Particulars: cited from earlier work.

Consider ivermectin, for which, in test [1] (mice injected with SWB001, single IP injection of ivermectin (15 mg/kg) (FIG. 7)), the “duration of analgesia in the SNI model” value lay in the range of 7 to 10 days. The “mechanical hypersensitivity (mechanical thresholds, von Frey)” value in test [1] (mice with AAV-GlyRM injected into dorsal horn, SNI, ipsilateral hindpaw, single IP injection 15 mg/kg) is given as “complete reversal of the mechanical hypersensitivity”. The “mechanical thresholds after repeat dose” value in test [1] (mice, SNI, AAV-GlyRM, 10 mg/kg IP on the 13th day, after thresholds had returned to post-injury baseline) is given as “recovery to non-injury baseline thresholds”. The “mechanical thresholds during follow-up after repeat dose” value in test [1] (mice, SNI, AAV-GlyRM, followed for 48 hours after 10 mg/kg IP) is reported as “thresholds remained at baseline”. Moreover, the “duration of the reversal of mechanical hypersensitivity” value in test [1] (mice, SNI, AAV-GlyRM, single IP injection 15 mg/kg) is “at least 5 days”. In test [1] (mice, contralateral hindpaw without vector, single IP injection 15 mg/kg), the “mechanical threshold on the contralateral side (absence of vector)” value is “no measurable effect”. Besides, the “improvement in pain related behaviors or anxiety over controls” value on GLYR(F207A/A288G) was 10%-500%. Also, the “average thermal withdrawal latency” value in test [2] (rats two months after bilateral trigeminal ganglion AAV injection, day after single IP 10 mg/kg, pre-treatment average 2.69 seconds) came out at 5.19 s. In addition, the “hypoalgesic threshold shift in thermal pain sensitivity” value in test [2] (rats, post versus pre IP 10 mg/kg) is listed as 92.9%.
Take `C[N+]1([O-])CCN(C2=Nc3cc(Cl)ccc3Nc3ccccc32)CC1` [CNO, clozapine-N-oxide]: the mechanical withdrawal thresholds result at hM4D(Gi) DREADD (hM4D+ mice (AAV6-hSyn-HA-hM4D(Gi)-IRES-mCitrine intraneural), intraperitoneal administration) is on record as “increased mechanical withdrawal thresholds”. On hM4D(Gi) DREADD (hM4D+ mice, after administration), the “Hargreaves thresholds (thermal sensation)” value was “Strong inhibition of Hargreaves thresholds”.
